# Measured values: US4933356A, “Diflunisal potentiation of acetazolamide in the control of intraocular pressure” (Cornell Research Foundation, Inc., priority 1988, dated 1990)
# Values joined by “and” are separate entries in the source; they are usually repeats but may differ in a detail not shown here. Identical values can stand only once. “Also recorded” adds a separate entry of the source. Like-named read-outs stand apart in the source and are kept apart here.
# Key:
# [1] = test system: glaucoma patients (intraocular pressure); test: Change in intraocular pressure (IOP) in glaucoma patients after one week of added diflunisal; assay type: in vivo, human; conditions: for Change in IOP following diflunisal treatment: Table I, mean ± SD; for effect of diflunisal on hypotensive action / IOP (in words): diflunisal added to stated drug
# Method: (§3) All subjects taking part in this study participated voluntarily and an informed consent was obtained from each prior to their enrollment in the study. Forty-eight glaucoma patients (19 men and 29 women) on maximally tolerated antiglaucoma medications were assigned consecutively to the study. […] All eyes were treated with at least one preparation of topical antiglaucoma medications; pilocarpine (60 eyes), epinephrine or dipivefrin hydrochloride (27 eyes), timolol, levobunolol or betaxolol (80 eyes), and echothiophate iodide (17 eyes). Upon entering the study each patient received a full ophthalmologic examination which included a visual acuity determination, slitlamp examination, IOP measurement (baseline) with a Goldmann applanation tonometer, gonioscopy, and a dilated fundus examination. Patients were instructed to take oral diflunisal, 500 mg, twice daily for one week, while their regular antiglaucoma medications remained unchanged. A week later patients were examined again for visual acuity, slit lamp examination, IOP measurement and a history of side effects. Baseline and follow-up IOP was measured by the same investigator using the same tonometer at approximately the same time of day.
# [2] = test system: plasma albumin / plasma protein; conditions: cited from earlier work
# [3] = cited from earlier work
# [4] = test system: prostaglandin synthesis (cyclooxygenase); conditions: at high doses; cited from earlier work
# [5] = test system: normal volunteers (intraocular pressure); test: Change in intraocular pressure in normal volunteers (control group) given diflunisal alone; assay type: in vivo, human; conditions: normal controls
# Method: Eight normal volunteers (52.3±16.4 years) on no medications participated in this study as a control group to study the ocular hypotensive effect of diflunisal itself and were given oral diflunisal, 500 mg, twice daily for one week. The examinations before and after diflunisal were similarly taken as glaucoma patients described above.
# [6] = in vivo; cited from earlier work
# [7] = test system: human plasma protein; conditions: cited from earlier work
# [8] = test system: glaucoma patients; test: Side effects in glaucoma patients after addition of diflunisal; conditions: acetazolamide plus diflunisal; severe nausea and extreme confusion
# Method: as §3
# [9] = Plasma concentration of acetazolamide (total and free) in glaucoma patients, before/after diflunisal; assay type: in vivo, human; conditions: for concentration: 15 patients, read-out: total acetazolamide plasma level
# Method: (§1) In 15 acetazolamide-treated patients 2-3 cc of venous blood was drawn before and again, at the same time of day, after one week on diflunisal for determination of total plasma concentration of acetazolamide. The blood sample underwent centrifugation at 5000 rpm for 5 minutes, and the plasma was separated and refrigerated until analysis. In addition, the plasma of seven of these 15 acetazolamide-treated patients was subjected to dialysis for determination of binding to albumin.
# A blood sample was also taken from six acetazolamide-treated patients twice at a one week interval without diflunisal treatment.
# (§2) Acetazolamide was analyzed by assay against carbonic anhydrase (Maren, T. H., J. Pharmacol. Exp. Therap.. 130:26 (1960)). Dialysis was carried out in a specially constructed cell consisting of two chambers of 1 ml capacity separated by Spectra/Por membrane, MW cutoff 6,000-8,000, Spectrum Med. Industries. One ml plasma, after analysis for total drug, was introduced to one compartment and 1 ml physiological saline to the other. The solutions were each mixed for 18 hours at 25* and then analyzed and calculated for free and total drug.
# [10] = Plasma unbound acetazolamide in patients by dialysis, before/after diflunisal; assay type: in vitro ADME; conditions: human, seven patients
# Method: as §1, §2
# [11] = Plasma protein binding (background and discussion); assay type: in vitro ADME; conditions: read-out: plasma albumin binding of acetazolamide (converted)
# [12] = In vitro plasma binding of acetazolamide with graded concentrations of diflunisal (dialysis); assay type: in vitro ADME; conditions: human, 90 μM acetazolamide
# Method: An in vitro study was performed for the effect of graded doses of diflunisal on the plasma binding of acetazolamide. Both drugs were added to plasma of a single non-glaucomatous individual and duplicate dialyses were done.
# as §2
# ^a In Vitro plasma binding of 90 μM acetazolamide in a single
# individual ([…]) following graded concentrations of diflunisal.
# [13] = diflunisal 500 mg oral twice daily, one week, added to stated antiglaucoma medication
smiles,measurement,setting,value
CC(=O)/N=c1/sc(S(N)(=O)=O)nn1C [Methazolamide],Change in IOP following diflunisal treatment,[1]; [13],-1.6 ± 1.5 mm Hg
same,mean reduction of IOP,"[1]; added diflunisal 500 mg twice daily, one week, vs baseline",1.6±1.5 mm Hg
same,effect of diflunisal on hypotensive action / IOP (in words),[1],did not result in a significant reduction of IOP; also recorded: did not affect the hypotensive action
same,plasma protein binding,[2],55%
"O=C(O)c1cc(-c2ccc(F)cc2F)ccc1O [Diflunisal, 2-(hydroxy)-5-(2,4-difluorophenyl) benzoic acid]",time to steady state plasma levels,[3]; 500 mg twice daily,3 to 9 days
same,time to peak plasma levels,"[3]; in vivo, po",2 to 3 h
same,absorption from the intestines,[3]; in vivo,well absorbed from the intestines
same,excretion,[3]; in vivo,excreted mostly in the urine as a glucuronide
same,inhibition of prostaglandin synthesis,[4],inhibits prostaglandin synthesis
same,Change in IOP following diflunisal treatment,"[1]; diflunisal 500 mg twice daily, one week, topically treated only, n = 22 eyes",-0.7 ± 2.1 mm Hg
same,change in IOP after diflunisal (in words),"[1]; patients on topical medications alone, plus diflunisal",no significant change in IOP; also recorded: did not result in a significant reduction of IOP
same,Change in IOP following diflunisal treatment,"[5]; Table I, diflunisal alone 500 mg twice daily, one week, n = 16 eyes, mean ± SD",0.0 ± 1.0 mm Hg
same,change in IOP after diflunisal (in words),[5]; diflunisal alone,no significant change in IOP; also recorded: did not result in a significant reduction of IOP
same,most frequent adverse reactions,[6],"nausea, gastrointestinal discomfort and diarrhea"
same,tolerability versus aspirin,[6],generally better tolerated than aspirin
same,displacement of drugs from plasma protein,[7],can unbind partially bound compounds such as salicylic acid and phenprocoumin
same,displacement of drugs from plasma protein,[7]; listed as diflunisal,displace the following compounds from human plasma protein: salicylate and phenprocoumin
"O=C(O)c1ccccc1O [Salicylate, salicylic acid]",unbinding of acetazolamide from plasma proteins,[7],unbind acetazolamide from plasma proteins
"CC(=O)Nc1nnc(S(N)(=O)=O)s1 [Acetazolamide, 5-acetamido-1,3,4-thiadiazole-2-sulfonamide]",patients dropped from study because of severe side effects,[8],Two
same,concentration,"[9]; after one week on diflunisal, P<0.015 vs baseline",31.8 ± 16.1 µM
same,concentration,[9]; baseline before diflunisal,19.1 ± 9.1 µM
same,increase in free plasma levels of acetazolamide,[9]; addition of diflunisal,5.6 fold
same,increase in total plasma levels of acetazolamide,[9]; addition of diflunisal,~50%
same,free (unbound) acetazolamide plasma concentration,[9]; after diflunisal,5.6 ± 4.1 µM and 5.6 µM
same,free (unbound) acetazolamide plasma concentration,[9]; before diflunisal,1.0 ± 0.6 µM and 1.0 µM
same,change in total acetazolamide plasma level over one week,"[9]; six patients without additional diflunisal, P≥0.05",no significant change
same,relationship between daily dosage of acetazolamide and IOP reduction,"[1]; FIG. 1, after one week of diflunisal",no relationship between the daily dosage of acetazolamide and the IOP reduction
same,Change in IOP following diflunisal treatment,[1]; [13],-3.8 ± 3.1 mm Hg
same,effect of diflunisal on hypotensive action / IOP (in words),[1],significant decrease in IOP
same,fraction unbound at 18 h,[10]; after diflunisal,0.162 ± 0.087
same,fraction unbound at 18 h,[10]; before diflunisal,0.043 ± 0.027
same,fraction unbound,[11]; reduced by diflunisal,~0.2
same,fraction unbound,[11]; without diflunisal,0.03 to 0.07
same,"fraction unbound at 18 h, 90 µM",[12]; diflunisal 0 μm,0.07
same,"fraction unbound at 18 h, 90 µM",[12]; diflunisal 200 μm,0.14
same,"fraction unbound at 18 h, 90 µM",[12]; diflunisal 400 μm,0.22
same,"fraction unbound at 18 h, 90 µM",[12]; diflunisal 600 μm,0.26
